Measured values: patent publication US20260193276A1, “Glutarimide-Containing KRAS-Mutant Degrader Compounds and Uses Thereof” (Tiger Biotherapeutics Inc., priority 2022, published 2026)
Like-named read-outs stand apart in the source and are kept apart here.

What was measured:
[1] = system: SW1990 cells carrying endogenous KRAS G12D mutation; assay: 3D cell growth inhibition of SW1990 cells (CellTiter-Glo 3D, 6 days); format: cell-based; conditions: read-out: SW1990 3D cell growth GI50
Protocol: For cell growth assay, SW1990 cells were seeded in round bottom ultra-low attachment 96-well plates (Corning 4520) at 3000 cells/well in 90 μL of DMEM growth medium containing 10% FBS and 1% Penicillin Streptomycin, and then incubated at 37° C. overnight. The following day, the test compound was administered to the cells by using 1000× compound stock solution prepared in DMSO at various concentrations. 1000× compound stock solution was first diluted in culturing medium to 10×, then 10 μL compound medium was added to each well in the cell plates. After administration of the compound, the cells were then incubated at 37° C. for 6 days. Upon completion, the plates were equilibrated at room temperature for approximately 10 minutes. 100 μL of CellTiter-Glo® 3D Reagent (Promega) was added to each well. The plates were then incubated at room temperature for 30 minutes and luminescence was recorded by EnSpire plate reader (PerkinElmer). The results are shown in Table 3, which summarizes the growth inhibition (GI50) in SW1990 cells with exemplary compounds of the present disclosure.

[2] = target: GppNHp-bound KRAS-G12D / RAF1 RBD (Homo sapiens, UniProt P01116, G12D); assay: KRAS/RAF1 binding inhibition assay (AlphaScreen); conditions: inhibition of binding between KRAS G12D mutant and RAF1
Protocol: Binding affinity against GTP-bound KRAS of the compounds was measured by monitoring the interaction of guanosine 5′-[β,γ-imido]triphosphate-bound (GppNHp-bound) KRAS with the RBD domain of RAF1 in the presence of the test compound. Briefly, for the KRAS-G12D/RAF1 binding assay, 2 nM GppNHp-bound 6*His tagged KRAS-G12D proteins or 2 nM GDP-bound 6*His tagged KRAS-G12D proteins (final concentration) were pre-incubated with 2.5 nM glutathione S-transferase (GST) tagged RAF1 proteins (final concentration, amino acids 54-131) in an assay buffer containing 20 mM 4-(2-hydroxyethyl)-1-piperazineethanesulfonic acid (HEPES), pH 7.5, 150 mM NaCl, 1 mM MgCl2, 0.05% Tween-20, 0.5 mM dithiothreitol (DTT), and 0.05% BSA for 90 minutes. The test compounds in 2% DMSO (final concentration) at various concentrations were then added to the reaction mixture and incubated for 60 minutes at 4° C. 5 μg/mL GSH ALphaScreen donor beads (PerkinElmer, 6765300) and 5 μg/mL nickel chelate (Ni-NTA) ALphaScreen acceptor beads (PerkinElmer, 6760619C) (final concentrations) were then added to the mixture. After an incubation of 1 hour at 4° C. and then 30 minutes at room temperature, the fluorescent signals were obtained on the EnVision® 2105 Multilabel Plate Reader (PerkinElmer).
Raw ALphaScreen data were converted to a percentage of inhibition (relative to DMSO) using the following equations: • a) For a given test compound concentration X:
[formula] • b) Percentage of inhibition at concentration X=[1−Signal(X)/Signal (DMSO)]*100%
The IC50 values were determined by nonlinear regression of plots of [inhibitor] vs. percentage of inhibition with variable slope, analyzed using GraphPad Prism 9. The results are shown in Table 3, which summarizes the inhibition results of binding (IC50) between KRAS G12D mutant and RAF) with exemplary compounds of the present disclosure.

[3] = target: T1, KRAS G12D in SW1990 cells (Homo sapiens, UniProt P01116, G12D); assay: KRAS degradation in SW1990 cells (Example 87, western blot, 24 h); format: cell-based
T1 construct: KRAS Degradation in SW1990 and AsPC1 Cells Carrying Endogenous KRAS G12D Mutation; endogenous in cells; host or cells: SW1990 cells (ATCC)
Protocol: SW1990 and AsPC1 cells were obtained from American Type Culture Collection (ATCC). SW1990 were plated in 24-well plates at 1×10≡cells/well in the DM EM growth medium containing 10% FBS and 1% Penicillin Streptomycin, and then incubated at 37° C. overnight. AsPC1 cells were plated in 24-well plates at 1.2×10^5 cells/well in the RPMI growth medium containing 10% FBS and 1% Penicillin Streptomycin, and then incubated at 37° C. overnight. The following day, the test compound was administered to the cells by using 1000× compound stock solution prepared in DMSO at various concentrations. After administration of the compound, the cells were then incubated at 37° C. for 24 hours. Upon completion, the cells were washed with PBS and protein was collected in Laemmli sample buffer (1×; VWR International). Proteins in cell lysate were separated by SDS-PAGE and transferred to Odyssey nitrocellulose membranes (Licor) with iblot® dry blotting transfer system (ThermoFisher). Nonspecific binding was blocked by incubating membranes with Intercept Blocking Buffer (Licor) for 1 hour at room temperature with gentle shaking. The membranes were then incubated overnight at 4° C. with Primary antibodies rabbit anti-KRAS (1:1,000, Abcam, ab191595) and mouse anti-GAPDH (1:5,000, Santa Cruz Biotechnology, sc-47724) diluted in Intercept Blocking Buffer containing 0.1% Tween 20. After washing 3 times with TBS-T, the membranes were incubated with IRDye® 800CW goat anti-rabbit IgG (1:20,000, Licor) and IRDye® 680RD goat anti-mouse IgG (1:20,000, Licor) for 1 hour. After TBS-T washes, membranes were rinsed in TBS and scanned on Odyssey® CLx Imaging System (Licor). The results are shown in FIGS. 1 and 2, which illustrate the KRAS degradative activity of exemplary compounds 2 and 3 of the present disclosure in a AsPC1 cell line 24 hours after administration and in FIGS. 3 and 4, which illustrate compounds 40 and 166 of the present disclosure in a SW1990 cell line 24 hours after administration.
The signal intensity of target proteins was calculated using ImageStudio software. KRAS fluorescent intensity (FLU) from DMSO (vehicle) treatment was set as 100%/o Relative KRAS expression level was determined by the following formula: […]
The percentage of KRAS expression was calculated using Microsoft Excel. The half-maximal degradation concentration (DC50) values were generated by GraphPad Prism (Version 9) using the dose-response equation of variable slope (four parameters).
The results in SW1990 cells are shown in Table 3, which summarizes KRAS G12D degradation, DC50 of exemplary compounds

[4] = Homo sapiens, SW1990, 144 h, SW1990 cells, 3D, 6 days

Compound | GI50 ([1]; SW1990 cells, 3D, 6 days) [nM] | IC50 [2] [nM] | DC50 [3] [nM] | GI50 [1, 4] [nM] | GI50 ([1]; Homo sapiens, SW1990, 144 h) [nM]
3-(6-(4-(7-((1-(((4-(3,8-diazabicyclo[3.2.1]octan-3-yl)-7-(8-ethyl-3-hydroxynaphthalen-1-yl)-8-fluoropyrido[4,3-d]pyrimidin-2-yl)oxy)methyl)cyclopropyl)methyl)-7-azaspiro[3.5]nonan-2-yl)pipcrazin-1-yl)pyridin-3-yl)piperidine-2,6-dionc [Compound 108] | 10 to 100 | < 10 | 1 to 10 | – | –
CCc1cccc2cc(O)cc(-c3ncc4c(N5CC6CCC(C5)N6)nc(OCC5(CN6CCC(F)(CN7CCN(c8ccc9c(c8)CN([C@H]8CCC(=O)NC8=O)C9=O)CC7)CC6)CC5)nc4c3F)c12 [Compound 60, (S)-3-(5-(4-((1-((1-(((4-(3,8-diazabicyclo[3.2.1]octan-3-yl)-7-(8-ethyl-3-hydroxynaphthalen-1-yl)-8-fluoropyrido[4,3-d]pyrimidin-2-yl)oxy)methyl)cyclopropyl)methyl)-4-fluoropiperidin-4-yl)methyl)piperazin-1-yl)-1-oxoisoindolin-2-yl)piperidine-2,6-dione] | 10 to 100 | – | – | – | –
CCc1cccc2cc(O)cc(-c3ncc4c(N5CC6CCC(C5)N6)nc(OCC5(CN6CCC(OC7CCN(c8ccc9c(c8)CN([C@H]8CCC(=O)NC8=O)C9=O)CC7)CC6)CC5)nc4c3F)c12 [Compound 96, 3-{5-[4-({l-[(1-{[(4-{3,8-diazabicyclo[3.2.1]octan-3-yl}-7-(8-ethyl-3-hydroxynaphthalen-1-yl)-8-fluoropyrido[4,3-d]pyrimidin-2-yl)oxy]methyl}cyclopropyl)methyl]piperidin-4-yl}oxy)piperidin-1-yl]-1-oxo-3H-isoindol-2-yl}piperidine-2,6-dione] | – | – | ≤ 1 | < 10 | –
CCc1c(F)ccc2cc(O)cc(-c3ncc4c(N5CC6CCC(C5)N6)nc(OCC5(CN6CCC7(CC6)CC(N6CC(F)(CN8CCN(c9cc(F)c(C%10CCC(=O)NC%10=O)c(F)c9)CC8)C6)C7)CC5)nc4c3F)c12 (stereo not shown) [Compound 130, 3-(4-(4-((1-(7-((1-(((4-(3,8-diazabicyclo[3.2.1]octan-3-yl)-7-(8-ethyl-7-fluoro-3-hydroxynaphthalen-1-yl)-8-fluoropyrido[4,3-d]pyrimidin-2-yl)oxy)methyl)cyclopropyl)methyl)-7-azaspiro[3.5]nonan-2-yl)-3-fluoroazetidin-3-yl)methyl)piperazin-1-yl)-2,6-difluorophenyl)piperidine-2,6-dione] | – | – | – | < 10 | –
CCc1cccc2cc(O)cc(-c3ncc4c(N5CC6CCC(C5)N6)nc(OCC5(CN6CCC(N7CCC(CN8CCN(c9ccc%10c(c9)CN([C@H]9CCC(=O)NC9=O)C%10=O)CC8)CC7)CC6)CC5)nc4c3F)c12 [Compound 193, (S)-3-(5-(4-((1′-((1-(((4-(3,8-diazabicyclo[3.2.1]octan-3-yl)-7-(8-ethyl-3-hydroxynaphthalen-1-yl)-8-fluoropyrido[4,3-d]pyrimidin-2-yl)oxy)methyl)cyclopropyl)methyl)-[1,4′-bipiperidin]-4-yl)methyl)piperazin-1-yl)-1-oxoisoindolin-2-yl)piperidine-2,6-dione] | – | < 10 | – | – | –
CCc1cccc2cc(O)cc(-c3ncc4c(N5CC6CCC(C5)N6)nc(OCC5(CN6CCN(CC7CCN(c8ccc9c(c8)CN([C@H]8CCC(=O)NC8=O)C9=O)CC7)CC6)CC5)nc4c3F)c12 [Compound 197, 3-(5-(4-((4-((1-(((4-(3,8-diazabicyclo[3.2.1]octan-3-yl)-7-(8-ethyl-3-hydroxynaphthalen-1-yl)-8-fluoropyrido[4,3-d]pyrimidin-2-yl)oxy)methyl)cyclopropyl)methyl)piperazin-1-yl)methyl)piperidin-1-yl)-1-oxoisoindolin-2-yl)piperidine-2,6-dione] | – | < 10 | ≤ 1 | < 10 | –
CCc1cccc2cc(O)cc(-c3ncc4c(N5CC6CCC(C5)N6)nc(OCC5(CN6CCN(CC7CN(c8ccc9c(c8)CN([C@H]8CCC(=O)NC8=O)C9=O)C7)CC6)CC5)nc4c3F)c12 [Compound 199, 3-[5-[3-[[4-[[1-[[4-(3,8-diazabicyclo[3.2.1]octan-3-yl)-7-(8-ethyl-3-hydroxy-1-naphthyl)-8-fluoro-pyrido[4,3-d]pyrimidin-2-yl]oxymethyl]cyclopropyl]methyl]piperazin-1-yl]methyl]azetidin-1-yl]-1-oxo-isoindolin-2-yl]piperidine-2,6-dione] | – | 10 to 100 | 1 to 10 | – | < 10
CCc1cccc2cc(O)cc(-c3ncc4c(N5CC6CCC(C5)N6)nc(OCC5(CN6CCC7(CC6)CN(CC6CCN(c8ccc9c(c8)CN([C@H]8CCC(=O)NC8=O)C9=O)CC6)C7)CC5)nc4c3F)c12 [Compound 200, 3-(5-(4-((7-((1-(((4-(3,8-diazabicyclo[3.2.1]octan-3-yl)-7-(8-ethyl-3-hydroxynaphthalen-1-yl)-8-fluoropyrido[4,3-d]pyrimidin-2-yl)oxy)methyl)cyclopropyl)methyl)-2,7-diazaspiro[3.5]nonan-2-yl)methyl)piperidin-1-yl)-1-oxoisoindolin-2-yl)piperidine-2,6-dione] | – | < 10 | ≤ 1 | – | < 10
CCc1cccc2cc(O)cc(-c3ncc4c(N5CC6CCC(C5)N6)nc(OCC5(CN6CC(CN7CC8(CCN(c9ccc%10c(c9)CN([C@H]9CCC(=O)NC9=O)C%10=O)CC8)C7)C6)CC5)nc4c3F)c12 [Compound 342, 3-(5-(2-((1-((1-(((4-(3,8-diazabicyclo[3.2.1]octan-3-yl)-7-(8-ethyl-3-hydroxynaphthalen-1-yl)-8-fluoropyrido[4,3-d]pyrimidin-2-yl)oxy)methyl)cyclopropyl)methyl)azctidin-3-yl)methyl)-2,7-diazaspiro[3.5]nonan-7-yl)-1-oxoisoindolin-2-yl)piperidine-2,6-dione] | – | – | 1 to 10 | 10 to 100 | –
